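In this assay, cells in 96-well plates receive the compound at five concentrations for 48 hours. Endpoints are linearly interpolated between the surrounding concentrations. The concentration for 50% growth inhibition is given as GI50.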 Activity calls are given as the source filed them. Cut-off read from the data, not from the text of the source: active = GI50 up to about 1.1 µM and inactive = higher.
Columns and labels:
Assay in all cases: NCI anticancer screen, dose series, 48 h
[1] = system: Hs-578T
[2] = system: HCT-15
[3] = system: EKVX
[4] = system: PC-3
[5] = system: NCI-H460
[6] = system: OVCAR-5
[7] = system: DU-145
[8] = system: HOP-62
[9] = system: SN12C
[10] = system: SW-620
[11] = system: 786-0
[12] = system: HT-29
[13] = system: MDA-N
[14] = system: Malme-3M
[15] = system: MOLT-4
[16] = system: U-251
[17] = system: HL-60
[18] = system: OVCAR-3

Structure (SMILES) | GI50 [1] | GI50 [2] | GI50 [3] | GI50 [4] | GI50 [5] | GI50 [6] | GI50 [7] | GI50 [8] | GI50 [9] | GI50 [10] | GI50 [11] | GI50 [12] | GI50 [13] | GI50 [14] | GI50 [15] | GI50 [16] | GI50 [17] | GI50 [18]
O=P(O)(O)c1ccc(-c2ccc(I)cc2)cc1 | > 100 µM (inactive) | > 100 µM | > 100 µM (inactive) | > 100 µM (inactive) | > 100 µM (inactive) | > 100 µM (inactive) | > 100 µM (inactive) | > 100 µM (inactive) | > 100 µM (inactive) | > 100 µM (inactive) | > 100 µM (inactive) | > 100 µM (inactive) | > 100 µM (inactive) | > 100 µM (inactive) | > 100 µM (inactive) | > 100 µM (inactive) | > 100 µM (inactive) | 
C=CCN(C(C)=O)c1cc(OCc2ccccc2)c2c(c1)c(C)cn2S(=O)(=O)c1ccccc1 | 7.4 µM (inactive) | 4.79 µM | 8.85 µM (inactive) | 4.21 µM (inactive) | 4.75 µM (inactive) | 11.8 µM (inactive) | 9.75 µM (inactive) | 11.5 µM (inactive) | 5.52 µM (inactive) | 5.46 µM (inactive) | 6.21 µM (inactive) | 5.55 µM (inactive) | 4.66 µM (inactive) | 6.58 µM (inactive) | 2.67 µM (inactive) | 4.98 µM (inactive) | 4.89 µM (inactive) | 4.15 µM (inactive)
Nc1ncnc2c1ncn2C1OC(CO)=CC1O (configuration not stated) | > 37.5 µM (inactive) | > 37.5 µM | > 37.5 µM (inactive) | > 37.5 µM (inactive) | > 37.5 µM (inactive) | > 37.5 µM (inactive) | > 37.5 µM (inactive) | > 37.5 µM (inactive) | > 37.5 µM (inactive) | > 37.5 µM (inactive) | > 37.5 µM (inactive) | > 37.5 µM (inactive) | > 37.5 µM (inactive) | > 37.5 µM (inactive) | > 37.5 µM (inactive) | > 37.5 µM (inactive) | > 37.5 µM (inactive) | > 37.5 µM (inactive)
CCOP(=O)(OCC)[C@H]1OC(C)(C)O[C@@H]1CO | > 100 µM (inactive) | > 100 µM | > 100 µM (inactive) | > 100 µM (inactive) | > 100 µM (inactive) | > 100 µM (inactive) | > 100 µM (inactive) | > 100 µM (inactive) | > 100 µM (inactive) | > 100 µM (inactive) | > 100 µM (inactive) | > 100 µM (inactive) | > 100 µM (inactive) | > 100 µM (inactive) | > 100 µM (inactive) | > 100 µM (inactive) | > 100 µM (inactive) | > 100 µM (inactive)
Cc1cc(C[C@H]2O[C@@H]3OC(C)(C)O[C@@H]3[C@H]3OC(C)(C)O[C@H]32)c2ccccc2n1 | 26.4 µM (inactive) | 76.4 µM | 79.6 µM (inactive) | 40.1 µM (inactive) | 30 µM (inactive) | > 100 µM (inactive) | > 100 µM (inactive) | 55.3 µM (inactive) | > 100 µM (inactive) | > 100 µM (inactive) | > 100 µM (inactive) | > 100 µM (inactive) | 41.3 µM (inactive) | 64.9 µM (inactive) | 31.8 µM (inactive) | > 100 µM (inactive) | 27.5 µM (inactive) | 
CCO/C=N/C1=C(C#N)C(c2ccc(OC)c(OC)c2)c2c(-c3ccccc3)nn(-c3ccccc3)c2O1 (configuration not stated) | 20.5 µM (inactive) | 5.11 µM | 16.1 µM (inactive) | 13.6 µM (inactive) | > 100 µM (inactive) | 10.7 µM (inactive) | 14.6 µM (inactive) | 17.7 µM (inactive) | 14.8 µM (inactive) | 11.8 µM (inactive) | 13.6 µM (inactive) | 19.1 µM (inactive) | 18.7 µM (inactive) | 19 µM (inactive) | 8.02 µM (inactive) | 12.7 µM (inactive) | 3.21 µM (inactive) | 16.1 µM (inactive)
CN(NC(=O)c1ccco1)C1=NCCCCN1 | > 100 µM (inactive) | > 100 µM | > 100 µM (inactive) | > 100 µM (inactive) | > 100 µM (inactive) | > 100 µM (inactive) | > 100 µM (inactive) | > 100 µM (inactive) | > 100 µM (inactive) | > 100 µM (inactive) | > 100 µM (inactive) | > 100 µM (inactive) | > 100 µM (inactive) | > 100 µM (inactive) | > 100 µM (inactive) | > 100 µM (inactive) | > 100 µM (inactive) | > 100 µM (inactive)
O=C1NC2CCCCC2N=C1CC(=O)c1ccc(Br)cc1 (configuration not stated) | 4.86 µM (inactive) | 29.4 µM | 17.8 µM (inactive) | 32.7 µM (inactive) | 3.4 µM (inactive) | > 100 µM (inactive) | > 100 µM (inactive) | 31.8 µM (inactive) | 27.7 µM (inactive) | > 100 µM (inactive) | 64.1 µM (inactive) | > 100 µM (inactive) | > 100 µM (inactive) | > 100 µM (inactive) | 5.61 µM (inactive) | 20.6 µM (inactive) | > 100 µM (inactive) | > 100 µM (inactive)
